Experimental data reported in ChEMBL document CHEMBL4507280 (2021).

Experiments:
[1] = molecular target: Vascular endothelial growth factor receptor 3 (Homo sapiens) (UniProt P35916); conditions: Compound concentration 1000.0 nM
[2] = molecular target: Phosphatidylinositol 4-phosphate 5-kinase type-1 alpha (Homo sapiens) (UniProt Q99755); conditions: Compound concentration 1000.0 nM
[3] = molecular target: Inhibitor of nuclear factor kappa-B kinase subunit alpha (Homo sapiens) (UniProt O15111); conditions: Compound concentration 1000.0 nM
[4] = molecular target: MAP/microtubule affinity-regulating kinase 3 (Homo sapiens) (UniProt P27448); conditions: Compound concentration 1000.0 nM
[5] = molecular target: Calcium/calmodulin-dependent protein kinase type II subunit gamma (Homo sapiens) (UniProt Q13555); conditions: Compound concentration 1000.0 nM
[6] = molecular target: Serine/threonine-protein kinase PAK 2 (Homo sapiens) (UniProt Q13177); conditions: Compound concentration 1000.0 nM
[7] = molecular target: STE20-like serine/threonine-protein kinase (Homo sapiens) (UniProt Q9H2G2); conditions: Compound concentration 1000.0 nM
[8] = molecular target: GABA-A receptor; anion channel (Rattus norvegicus) (UniProt O09028+P15431+P18506+P18508+P19969+P20236+P23574+P23576+P28471+P28473+P30191+P62813+P63079+P63138+Q91ZM7+Q9ES14); conditions: Compound concentration 10.0 uM
[9] = molecular target: Serine/threonine-protein kinase Chk1 (Homo sapiens) (UniProt O14757); conditions: Compound concentration 1000.0 nM
[10] = molecular target: D(1A) dopamine receptor (Homo sapiens) (UniProt P21728); conditions: Compound concentration 10.0 uM
[11] = molecular target: Receptor-type tyrosine-protein kinase FLT3 (Homo sapiens) (UniProt P36888); conditions: Compound concentration 1000.0 nM
[12] = molecular target: Protein-tyrosine kinase 2-beta (Homo sapiens) (UniProt Q14289); conditions: Compound concentration 1000.0 nM
[13] = test system: ALK tyrosine kinase receptor (Homo sapiens), Q9UM73 [C1156Y]; conditions: Compound concentration 1000.0 nM
[14] = molecular target: 5-hydroxytryptamine receptor 2C (Homo sapiens) (UniProt P28335); conditions: Compound concentration 10.0 uM
[15] = test system: Receptor-type tyrosine-protein kinase FLT3 (Homo sapiens), P36888 [UNDEFINED MUTATION]; conditions: Compound concentration 1000.0 nM
[16] = molecular target: RAF proto-oncogene serine/threonine-protein kinase (Homo sapiens) (UniProt P04049); conditions: Compound concentration 1000.0 nM
[17] = molecular target: T1, Alpha-1B adrenergic receptor (Homo sapiens) (UniProt P35368); conditions: Compound concentration 10.0 uM
T1 sequence (whole entry): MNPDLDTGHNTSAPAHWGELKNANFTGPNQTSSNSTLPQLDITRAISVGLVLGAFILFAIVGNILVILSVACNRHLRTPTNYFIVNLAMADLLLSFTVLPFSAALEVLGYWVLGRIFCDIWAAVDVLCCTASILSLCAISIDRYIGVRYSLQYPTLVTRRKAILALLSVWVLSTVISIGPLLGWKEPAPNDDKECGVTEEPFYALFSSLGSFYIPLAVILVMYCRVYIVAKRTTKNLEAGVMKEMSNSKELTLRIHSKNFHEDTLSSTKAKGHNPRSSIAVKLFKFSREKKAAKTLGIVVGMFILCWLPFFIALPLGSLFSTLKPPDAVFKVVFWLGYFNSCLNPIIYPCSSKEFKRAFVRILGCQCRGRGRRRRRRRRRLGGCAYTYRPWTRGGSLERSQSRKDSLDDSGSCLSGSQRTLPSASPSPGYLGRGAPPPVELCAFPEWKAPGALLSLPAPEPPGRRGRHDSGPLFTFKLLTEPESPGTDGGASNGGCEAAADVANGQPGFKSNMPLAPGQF

[18] = molecular target: ALK tyrosine kinase receptor (Homo sapiens) (UniProt Q9UM73); conditions: Compound concentration 1000.0 nM
[19] = molecular target: Mitogen-activated protein kinase kinase kinase 7 (Homo sapiens) (UniProt O43318); conditions: Compound concentration 1000.0 nM
[20] = molecular target: Serine/threonine-protein kinase LATS1 (Homo sapiens) (UniProt O95835); conditions: Compound concentration 1000.0 nM
[21] = molecular target: Serine/threonine-protein kinase pim-3 (Homo sapiens) (UniProt Q86V86); conditions: Compound concentration 1000.0 nM
[22] = molecular target: Serine/threonine-protein kinase Nek5 (Homo sapiens) (UniProt Q6P3R8); conditions: Compound concentration 1000.0 nM
[23] = molecular target: Mitotic checkpoint serine/threonine-protein kinase BUB1 (Homo sapiens) (UniProt O43683); conditions: Compound concentration 1000.0 nM
[24] = molecular target: Serine/threonine-protein kinase 38-like (Homo sapiens) (UniProt Q9Y2H1); conditions: Compound concentration 1000.0 nM
[25] = test system: Phosphatidylinositol 4,5-bisphosphate 3-kinase catalytic subunit alpha isoform (Homo sapiens), P42336 [E545A]; conditions: Compound concentration 1000.0 nM
[26] = molecular target: LIM domain kinase 2 (Homo sapiens) (UniProt P53671); conditions: Compound concentration 1000.0 nM
[27] = molecular target: Casein kinase I isoform gamma-2 (Homo sapiens) (UniProt P78368); conditions: Compound concentration 1000.0 nM
[28] = molecular target: Tyrosine-protein kinase BTK (Homo sapiens) (UniProt Q06187); conditions: Compound concentration 1000.0 nM
[29] = molecular target: Calcium/calmodulin-dependent protein kinase type II subunit delta (Homo sapiens) (UniProt Q13557); conditions: Compound concentration 1000.0 nM
[30] = molecular target: Serine/threonine-protein kinase Nek9 (Homo sapiens) (UniProt Q8TD19); conditions: Compound concentration 1000.0 nM
[31] = molecular target: Cyclin-G-associated kinase (Homo sapiens) (UniProt O14976); conditions: Compound concentration 1000.0 nM
[32] = molecular target: Serine/threonine-protein kinase ICK (Homo sapiens) (UniProt Q9UPZ9); conditions: Compound concentration 1000.0 nM
[33] = molecular target: Serine/threonine-protein kinase WNK4 (Homo sapiens) (UniProt Q96J92); conditions: Compound concentration 1000.0 nM
[34] = molecular target: STE20/SPS1-related proline-alanine-rich protein kinase (Homo sapiens) (UniProt Q9UEW8); conditions: Compound concentration 1000.0 nM
[35] = molecular target: Serine/threonine-protein kinase SIK3 (Homo sapiens) (UniProt Q9Y2K2); conditions: Compound concentration 1000.0 nM
[36] = molecular target: G protein-coupled receptor kinase 4 (Homo sapiens) (UniProt P32298); conditions: Compound concentration 1000.0 nM

Sequence of Vascular endothelial growth factor receptor 3 (Homo sapiens) (P35916 whole entry): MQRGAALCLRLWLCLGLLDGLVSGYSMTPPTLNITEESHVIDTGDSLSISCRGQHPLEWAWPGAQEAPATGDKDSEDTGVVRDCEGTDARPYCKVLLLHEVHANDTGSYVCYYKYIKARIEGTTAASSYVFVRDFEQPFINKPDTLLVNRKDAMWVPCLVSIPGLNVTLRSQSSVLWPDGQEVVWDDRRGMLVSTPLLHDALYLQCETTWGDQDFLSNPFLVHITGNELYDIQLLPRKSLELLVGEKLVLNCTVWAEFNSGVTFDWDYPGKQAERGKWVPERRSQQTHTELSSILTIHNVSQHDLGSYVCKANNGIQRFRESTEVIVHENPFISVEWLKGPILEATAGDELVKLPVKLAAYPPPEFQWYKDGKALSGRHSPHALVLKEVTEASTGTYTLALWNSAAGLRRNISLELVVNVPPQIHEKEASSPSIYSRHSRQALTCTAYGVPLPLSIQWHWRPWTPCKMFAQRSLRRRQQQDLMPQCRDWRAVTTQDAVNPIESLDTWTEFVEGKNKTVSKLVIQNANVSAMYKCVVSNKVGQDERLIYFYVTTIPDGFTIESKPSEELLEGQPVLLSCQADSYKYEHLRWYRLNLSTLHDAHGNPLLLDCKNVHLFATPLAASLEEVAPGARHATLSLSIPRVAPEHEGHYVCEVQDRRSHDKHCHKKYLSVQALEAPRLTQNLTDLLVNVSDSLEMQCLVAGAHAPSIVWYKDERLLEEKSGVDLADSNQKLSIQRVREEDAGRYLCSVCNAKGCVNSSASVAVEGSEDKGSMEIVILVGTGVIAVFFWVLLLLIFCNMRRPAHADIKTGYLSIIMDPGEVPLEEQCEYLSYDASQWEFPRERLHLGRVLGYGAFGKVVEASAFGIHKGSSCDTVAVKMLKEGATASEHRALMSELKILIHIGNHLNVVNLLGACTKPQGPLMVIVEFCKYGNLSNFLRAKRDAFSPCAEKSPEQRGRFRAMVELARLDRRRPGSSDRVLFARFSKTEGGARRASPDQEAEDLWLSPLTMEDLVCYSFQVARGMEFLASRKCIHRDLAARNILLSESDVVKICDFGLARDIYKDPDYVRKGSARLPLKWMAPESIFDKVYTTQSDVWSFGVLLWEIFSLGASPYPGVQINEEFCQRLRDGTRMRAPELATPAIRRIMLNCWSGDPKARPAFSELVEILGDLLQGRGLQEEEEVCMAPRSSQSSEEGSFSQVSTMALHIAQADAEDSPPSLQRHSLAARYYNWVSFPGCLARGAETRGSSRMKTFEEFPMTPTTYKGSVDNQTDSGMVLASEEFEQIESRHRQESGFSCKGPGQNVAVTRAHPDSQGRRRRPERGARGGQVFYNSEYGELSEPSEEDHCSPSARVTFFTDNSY
Sequence of STE20-like serine/threonine-protein kinase (Homo sapiens) (Q9H2G2 whole entry, looked up): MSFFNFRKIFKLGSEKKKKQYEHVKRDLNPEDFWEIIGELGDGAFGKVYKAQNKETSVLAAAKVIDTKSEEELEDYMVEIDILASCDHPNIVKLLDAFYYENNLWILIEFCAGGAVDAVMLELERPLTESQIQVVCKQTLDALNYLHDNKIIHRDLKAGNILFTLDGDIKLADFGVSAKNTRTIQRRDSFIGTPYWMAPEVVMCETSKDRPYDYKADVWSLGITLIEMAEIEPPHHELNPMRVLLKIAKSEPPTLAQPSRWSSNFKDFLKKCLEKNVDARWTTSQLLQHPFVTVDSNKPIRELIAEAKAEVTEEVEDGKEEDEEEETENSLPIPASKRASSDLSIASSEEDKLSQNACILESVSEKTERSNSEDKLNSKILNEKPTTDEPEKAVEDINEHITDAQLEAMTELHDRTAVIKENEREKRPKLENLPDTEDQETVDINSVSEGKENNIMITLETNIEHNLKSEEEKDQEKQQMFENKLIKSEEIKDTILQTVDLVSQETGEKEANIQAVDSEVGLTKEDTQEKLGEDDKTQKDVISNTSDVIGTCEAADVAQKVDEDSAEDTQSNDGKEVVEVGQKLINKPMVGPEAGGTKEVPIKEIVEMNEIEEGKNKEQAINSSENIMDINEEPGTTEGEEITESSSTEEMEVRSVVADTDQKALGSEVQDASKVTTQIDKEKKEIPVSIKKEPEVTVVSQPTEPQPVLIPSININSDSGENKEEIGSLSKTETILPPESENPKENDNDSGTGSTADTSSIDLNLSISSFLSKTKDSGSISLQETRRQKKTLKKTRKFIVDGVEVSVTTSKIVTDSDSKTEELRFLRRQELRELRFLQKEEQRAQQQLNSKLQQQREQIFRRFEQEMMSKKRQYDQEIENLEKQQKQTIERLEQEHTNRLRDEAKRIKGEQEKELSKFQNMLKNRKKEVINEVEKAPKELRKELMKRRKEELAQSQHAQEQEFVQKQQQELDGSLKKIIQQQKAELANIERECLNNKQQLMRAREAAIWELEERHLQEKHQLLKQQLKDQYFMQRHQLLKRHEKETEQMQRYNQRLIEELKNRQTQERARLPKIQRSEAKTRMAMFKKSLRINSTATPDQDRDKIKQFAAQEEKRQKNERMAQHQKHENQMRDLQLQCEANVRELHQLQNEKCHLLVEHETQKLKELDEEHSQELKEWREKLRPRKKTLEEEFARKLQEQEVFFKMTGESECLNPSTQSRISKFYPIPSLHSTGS
Sequence of Serine/threonine-protein kinase Nek9 (Homo sapiens) (Q8TD19 whole entry): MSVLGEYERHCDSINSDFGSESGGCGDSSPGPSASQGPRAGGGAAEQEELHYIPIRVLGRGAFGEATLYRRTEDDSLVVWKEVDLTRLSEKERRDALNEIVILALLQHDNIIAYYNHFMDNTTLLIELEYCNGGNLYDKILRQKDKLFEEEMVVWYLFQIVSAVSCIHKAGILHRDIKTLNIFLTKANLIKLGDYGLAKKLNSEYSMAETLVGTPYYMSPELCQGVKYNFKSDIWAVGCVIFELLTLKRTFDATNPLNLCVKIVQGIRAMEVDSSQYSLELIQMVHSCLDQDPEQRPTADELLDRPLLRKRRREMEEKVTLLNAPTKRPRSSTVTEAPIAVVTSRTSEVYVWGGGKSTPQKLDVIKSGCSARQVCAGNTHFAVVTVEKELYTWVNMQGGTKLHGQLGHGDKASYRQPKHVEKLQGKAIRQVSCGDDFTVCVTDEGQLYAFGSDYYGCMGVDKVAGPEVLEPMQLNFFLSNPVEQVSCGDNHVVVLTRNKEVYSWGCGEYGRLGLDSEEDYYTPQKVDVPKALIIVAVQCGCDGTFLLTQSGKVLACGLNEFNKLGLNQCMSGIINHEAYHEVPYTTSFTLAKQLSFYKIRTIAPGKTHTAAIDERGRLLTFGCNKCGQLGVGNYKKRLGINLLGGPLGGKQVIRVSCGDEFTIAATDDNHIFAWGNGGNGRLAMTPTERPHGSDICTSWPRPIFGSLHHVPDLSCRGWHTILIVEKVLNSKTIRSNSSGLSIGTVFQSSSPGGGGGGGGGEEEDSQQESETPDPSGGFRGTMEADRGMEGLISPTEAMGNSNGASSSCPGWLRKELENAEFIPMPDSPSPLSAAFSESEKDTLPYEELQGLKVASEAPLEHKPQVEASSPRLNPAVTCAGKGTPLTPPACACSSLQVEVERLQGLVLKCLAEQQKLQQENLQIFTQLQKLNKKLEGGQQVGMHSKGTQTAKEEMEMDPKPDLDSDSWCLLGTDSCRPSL
Sequence of Serine/threonine-protein kinase 38-like (Homo sapiens) (Q9Y2H1 2-464 limits assumed): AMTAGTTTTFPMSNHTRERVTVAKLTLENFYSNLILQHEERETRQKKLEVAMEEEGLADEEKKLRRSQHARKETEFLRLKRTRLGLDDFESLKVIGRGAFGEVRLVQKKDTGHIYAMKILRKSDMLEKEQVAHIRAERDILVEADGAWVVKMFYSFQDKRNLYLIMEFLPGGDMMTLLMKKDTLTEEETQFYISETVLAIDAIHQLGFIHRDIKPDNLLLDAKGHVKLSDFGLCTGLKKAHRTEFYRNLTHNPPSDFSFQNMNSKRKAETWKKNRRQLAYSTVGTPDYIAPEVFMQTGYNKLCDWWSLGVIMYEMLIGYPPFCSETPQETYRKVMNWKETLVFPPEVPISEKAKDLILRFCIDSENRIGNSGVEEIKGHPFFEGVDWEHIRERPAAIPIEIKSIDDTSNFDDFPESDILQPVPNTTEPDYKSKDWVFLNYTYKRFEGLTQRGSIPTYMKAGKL
Sequence of RAF proto-oncogene serine/threonine-protein kinase (Homo sapiens) (P04049 whole entry): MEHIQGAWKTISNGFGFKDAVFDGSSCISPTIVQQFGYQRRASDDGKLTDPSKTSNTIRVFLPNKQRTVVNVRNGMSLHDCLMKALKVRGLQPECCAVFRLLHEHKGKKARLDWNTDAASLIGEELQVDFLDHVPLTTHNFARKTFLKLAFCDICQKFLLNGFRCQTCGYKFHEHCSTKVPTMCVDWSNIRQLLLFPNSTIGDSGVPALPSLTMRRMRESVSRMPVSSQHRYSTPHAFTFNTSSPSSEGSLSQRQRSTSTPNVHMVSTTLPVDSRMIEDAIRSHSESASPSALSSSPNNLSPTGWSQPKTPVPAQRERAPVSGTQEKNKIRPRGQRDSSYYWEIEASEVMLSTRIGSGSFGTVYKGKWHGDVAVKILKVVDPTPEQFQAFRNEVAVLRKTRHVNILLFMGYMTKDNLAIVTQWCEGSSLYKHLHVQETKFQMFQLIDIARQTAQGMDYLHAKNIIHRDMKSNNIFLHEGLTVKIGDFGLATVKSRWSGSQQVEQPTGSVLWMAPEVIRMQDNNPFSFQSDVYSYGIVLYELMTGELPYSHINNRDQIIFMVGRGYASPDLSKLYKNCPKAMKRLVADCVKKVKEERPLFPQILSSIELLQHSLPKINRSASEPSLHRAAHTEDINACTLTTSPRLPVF

| SMILES | residual activity [1] | residual activity [2] | residual activity [3] | residual activity [4] | residual activity [5] | residual activity [6] | residual activity [7] | inhibition [8] | residual activity [9] | inhibition [10] | residual activity [11] | residual activity [12] | residual activity [13] | inhibition [14] | residual activity [15] | residual activity [16] | inhibition [17] | residual activity [18] | residual activity [19] | residual activity [20] | further results |
| --- | --- | --- | --- | --- | --- | --- | --- | --- | --- | --- | --- | --- | --- | --- | --- | --- | --- | --- | --- | --- | --- |
| CCC(=O)N[C@@H]1CC[C@H](C(=O)N(C)c2ccc(-c3nc4ccccc4o3)cc2)C1 [BI 99990] | 100% | 86% | 100% | 100% | 100% | 86% | 100% | 0.94% | 100% | -1.16% | 89% | 100% | 100% | 5.92% | 100% | 94% | -6.47% | 99% | 100% | 58% | residual activity [21]: 96%; residual activity [22]: 100%; residual activity [23]: 89%; residual activity [24]: 100%; residual activity [25]: 77%; residual activity [26]: 100%; residual activity [27]: 100%; residual activity [28]: 87%; residual activity [29]: 100%; residual activity [30]: 100%; residual activity [31]: 100%; residual activity [32]: 92%; residual activity [33]: 100%; residual activity [34]: 73%; residual activity [35]: 100%; residual activity [36]: 100% |
| CCC(=O)N[C@H]1CC[C@@H](C(=O)N(C)c2ccc(-c3nc4ccccc4o3)cc2)C1 [BI 99179] | 97% | 100% | 100% | 96% | 95% | 100% | 92% | 21.1% | 100% | -2.15% | 78% | 100% | 100% | 8.87% | 91% | 100% | -6.32% | 86% | 86% | 48% | residual activity [21]: 100%; residual activity [22]: 100%; residual activity [23]: 74%; residual activity [24]: 79%; residual activity [25]: 90%; residual activity [26]: 100%; residual activity [27]: 100%; residual activity [28]: 77%; residual activity [29]: 91%; residual activity [30]: 99%; residual activity [31]: 100%; residual activity [32]: 70%; residual activity [33]: 100%; residual activity [34]: 100%; residual activity [35]: 84%; residual activity [36]: 100% |
